Experimental data: US7129074B2, “Nucleoside triphosphate diphosphohydrolase (NTPDase 8) and uses thereof” (Université Laval, priority 2002, dated 2006)

Columns and labels:
mouse NTPDase8 [1] = biological target: T1, mouse NTPDase8 (Mus musculus, UniProt Q8K0L2); test: NTPDase activity measurement (Pi release, malachite green) on protein extracts of COS-7 cells transfected with mouse NTPDase8; type: biochemical; settings: for Vmax,app / Km: substrate of NTPDase8, Woolf-Augustinsson-Hofstee plot, mean ± SEM; for Km: read-out: Km,app
T1 construct: expressed in transfected cells; host or cells: COS-7
T1 sequence (Q8K0L2 1-497): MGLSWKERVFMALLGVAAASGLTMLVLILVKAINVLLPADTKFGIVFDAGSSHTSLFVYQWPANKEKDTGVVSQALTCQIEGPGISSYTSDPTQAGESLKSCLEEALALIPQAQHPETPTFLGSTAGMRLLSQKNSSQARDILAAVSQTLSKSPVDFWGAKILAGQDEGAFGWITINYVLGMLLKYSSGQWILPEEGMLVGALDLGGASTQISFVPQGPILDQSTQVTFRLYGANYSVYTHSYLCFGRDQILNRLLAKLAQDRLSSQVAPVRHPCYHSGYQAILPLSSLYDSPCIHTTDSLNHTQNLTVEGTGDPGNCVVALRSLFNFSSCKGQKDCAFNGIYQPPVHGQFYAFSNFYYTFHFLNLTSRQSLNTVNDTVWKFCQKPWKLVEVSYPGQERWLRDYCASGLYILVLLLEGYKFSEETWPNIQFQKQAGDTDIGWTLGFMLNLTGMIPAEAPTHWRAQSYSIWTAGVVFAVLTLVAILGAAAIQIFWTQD
Description: COS-7 cells were transfected in 10 cm plates using Lipofectamine™ (Invitrogen), as previously described (Kaczmarek et al, 1996, JBC, 271:33116–33122). Briefly, cells were incubated for 5 h at 37° C. in DMEM in absence of foetal bovine serum (FBS) with 6 μg of plasmid DNA and 24 μl of Lipofectamine™ reagent. The reaction was stopped by adding an equal volume of DMEM containing 20% FBS and cell were harvested 40–44 h later. For protein preparation, transfected cells were washed three times with Tris-saline buffer at 4° C., harvested by scraping in 95 mM NaCl, 0.1 mM PMSF and 45 mM Tris, pH 7.5, and washed twice by 300×g centrifugation for 10 min at 4° C. Cells were resuspended in the harvesting buffer containing 10 μg/ml aprotinin and sonicated. Nucleus and cellular debris were discarded by another centrifugation as described above and the supernatants stored at −80° C. until used. Protein concentration was estimated by the Bradford microplate assay using bovine serum albumin (BSA) as a standard of reference (Bradford, 1976, Analyt. Biochem., 72:248–254).
(§1) Enzyme activity in the protein fractions was determined as previously described (Sévigny et al, 1997, Biochimica Biophysica Acta 1334:73–88) Briefly, enzyme activity was measured at 37° C. in 0.5 ml of the following incubation medium: […] either with 100 mM Tris, pH 7.4 or with 100 mM MES, pH 6.4 or as indicated. Enzyme preparation was added to the incubation mixture and pre-incubated at 37° C. for 3 min. Reaction was started by the addition of 0.5 mM substrate (ATP, ADP, UTP, UDP or AMP) and stopped after 20 min by the addition of 0.125 ml of the malachite green reagent (Baykov and Evtushenko, 1988, Analytical Biochemistry 171:266–270). Activity on intact cells was carried out in similar conditions in 24 wells plates, also 40–44 h after transfection, with the addition of 145 mM NaCl to the incubation medium. The reaction was stopped by taking 0.2 ml of the reaction mixture to a new tube containing 50 μl of malachite reagent. The inorganic phosphate […] released from the hydrolysis of exogenous nucleotides was measured according to Baykov et al. (Baykov and Evtushenko, 1988, Analytical Biochemistry 171:266–270)
Optimum pH was determined in the presence of 5 mM CaCl2 with the following buffers: 100 mM acetate (pH 4.0–5.5), 100 mM MES (pH 5.5–7.0), 100 mM Tris (pH 7.0–9.0) or 100 mM glycine pH (9.0–11.0). In the indicated experiments CaCl2 was substituted by MgCl2. To remove traces of divalent cations 1 mM EDTA plus 1 mM EGTA was added to the medium. One unit of enzyme activity corresponds to the release of 1 μmole Pi/min at 37° C. (LeBel et al., 1980, J. Biol. Chem. 255:1227–1233). All experiments were performed in triplicate with the appropriate controls.

mouse NTPDase8 [2] = biological target: T1, mouse NTPDase8; test: HPLC separation and quantification of nucleotides hydrolysed by mouse NTPDase8; type: biochemical
Description: For HPLC analysis, activity assays were performed in 5 mM CaCl2 and 100 mM MES, pH 6.4 as described above with the following modifications. Aliquots of 20 μL were taken at different time points from the enzymatic reaction and activity stopped by the addition of an equal volume of ice-cold 1 M perchloric acid. The samples were centrifuged for 5 min at 1000×g at 4° C. Supernatants were neutralized with 1 M KOH (4° C.), centrifuged for a subsequent 5 min at 1000×g and then lipids were removed by liquid-liquid extraction with n-heptane (5:1, v/v). An aliquot of 20 μL from the lipid extracted sample was applied to a column connected to a HPLC system.
Adenine nucleotides (ATP, ADP and AMP) were separated on a 15 cm×4.6 mm, 3 μm SUPELCOSIL™ LC-18-T column (Supelco, Bellefonte, Pa., USA) with a mobile phase composed of 25 mM TBA, 5 mM EDTA, 100 mM KH2PO4/K2HPO4, pH 7.0 and 2% methanol (v/v), at a flow-rate of 1 ml/min. […] Combined adenine and uridine nucleotide samples were analyzed with the latter column with a mobile phase composed of 16.7 mM TBA, 3.3 mM EDTA, 66.7 mM KH2PO4/K2HPO4, pH 7.0. The flow rate was 0.5 ml/min for the first 20 min and 1 ml/min up to 90 min. The nucleotides were detected by UV absorption at 260 nm and identified by comparison of the retention time and UV spectrum with the appropriate standards.

human NTPDase8 = biological target: T2, human NTPDase8 (Homo sapiens, UniProt Q5MY95, L62P); test: Activity on protein extracts from human NTPDase8 transient transfected COS-7 cells; type: biochemical; settings: substrate hydrolysis by human NTPDase8 protein extracts
T2 construct: expressed in transfected cells; host or cells: COS-7
T2 sequence (Q5MY95 1-495 L62P): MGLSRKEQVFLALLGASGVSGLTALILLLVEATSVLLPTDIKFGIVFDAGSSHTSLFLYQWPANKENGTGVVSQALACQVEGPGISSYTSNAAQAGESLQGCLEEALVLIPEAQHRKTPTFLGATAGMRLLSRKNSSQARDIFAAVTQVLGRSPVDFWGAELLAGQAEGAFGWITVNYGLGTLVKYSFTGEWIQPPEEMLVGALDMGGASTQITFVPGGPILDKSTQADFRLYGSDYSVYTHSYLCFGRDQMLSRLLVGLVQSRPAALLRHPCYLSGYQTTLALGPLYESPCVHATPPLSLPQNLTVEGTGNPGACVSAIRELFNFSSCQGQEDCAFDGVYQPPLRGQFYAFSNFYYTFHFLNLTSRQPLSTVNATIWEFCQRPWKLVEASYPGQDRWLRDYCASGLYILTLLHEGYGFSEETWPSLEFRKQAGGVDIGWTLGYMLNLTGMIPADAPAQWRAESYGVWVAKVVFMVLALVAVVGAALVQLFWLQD
Description: as §1
The activity of the protein extracts of human NTPDase8 was carried out as described previously herein and the results are shown in Table 3.

[3] = test system: platelet aggregation in PRP; test: ADP-induced platelet aggregation in human PRP (optic density at 600 nm); type: cell-based; settings: 4 uM ADP; PRP preincubated 25 seconds with 250 ug mNTPDase8 or 3 ug mNTPDase1 protein extracts
Description: Cell membrane preparation and platelet aggregation assays were performed as described before.
PRP prepared from human donors was tested for platelet activation in the presence of exogenous ADP and protein extracts from COS cell transfected with pcDNA3.11V5-His encoding mouse NTPDase8 (mNTPDase8) or mouse (mNTPDase1) (FIG. 6). Optic density at 600 nm was recorded over a period of 8 minutes. Before the addition of 4 uM ADP, PRP was preincubated for 25 seconds with 250 ug mNTPDase8 or 3 ug mNTPDase1 protein extracts, 250 ug untransfected COS cells or without protein extract (agonist: 4 uM ADP). Note that 4 uM ADP induced high levels of platelet aggregation in control samples.

Molecule	Vmax,app (mouse NTPDase8 [1])	Km (mouse NTPDase8 [1]) [µM]	Activity (human NTPDase8) [nmols Pi/min/mg]	other results
Nc1ncnc2c1ncn2[C@@H]1O[C@H](COP(=O)(O)OP(=O)(O)O)[C@@H](O)[C@H]1O [ADP]	0.95 ± 0.08 U/mg of protein	41 ± 6	55 ± 15	hydrolysis after 120 min (mouse NTPDase8 [2]; formed from ATP incubated with NTPDase8 extracts): completely hydrolyzed
Nc1ncnc2c1ncn2[C@@H]1O[C@H](COP(=O)(O)O)[C@@H](O)[C@H]1O [AMP]			2 ± 0.6	hydrolysis by NTPDase8 (mouse NTPDase8 [1]; in the presence of Ca2+): did not hydrolyze
Nc1ncnc2c1ncn2[C@@H]1O[C@H](COP(=O)(O)OP(=O)(O)OP(=O)(O)O)[C@@H](O)[C@H]1O [ATP]	0.82 ± 0.02 U/mg of protein	13 ± 6	264 ± 7	
O=c1ccn([C@@H]2O[C@H](COP(=O)(O)OP(=O)(O)O)[C@@H](O)[C@H]2O)c(=O)[nH]1 [UDP]	1.08 ± 0.06 U/mg of protein	171 ± 15	38 ± 5	remaining concentration after 120 min (mouse NTPDase8 [2]; formed from UTP incubated with NTPDase8 extracts): 140 µM
O=c1ccn([C@@H]2O[C@H](COP(=O)(O)OP(=O)(O)OP(=O)(O)O)[C@@H](O)[C@H]2O)c(=O)[nH]1 [UTP]	1.13 ± 0.02 U/mg of protein	47 ± 1	271 ± 35	
mNTPDase8: mouse nucleoside triphosphate diphosphohydrolase 8, SEQ ID NO:1, protein extract from transfected COS-7 cells (protein, PEPTIDE (1)...(497) Mouse HTPDase8) MGLSWKERVFMALLGVAAASGLTMLVLILVKAINVLLPADTKFGIVFDAGSSHTSLFVYQWPANKEKDTGVVSQALTCQIEGPGISSYTSDPTQAGESLKSCLEEALALIPQAQHPETPTFLGSTAGMRLLSQKNSSQARDILAAVSQTLSKSPVDFWGAKILAGQDEGAFGWITINYVLGMLLKYSSGQWILPEEGMLVGALDLGGASTQISFVPQGPILDQSTQVTFRLYGANYSVYTHSYLCFGRDQILNRLLAKLAQDRLSSQVAPVRHPCYHSGYQAILPLSSLYDSPCIHTTDSLNHTQNLTVEGTGDPGNCVVALRSLFNFSSCKGQKDCAFNGIYQPPVHGQFYAFSNFYYTFHFLNLTSRQSLNTVNDTVWKFCQKPWKLVEVSYPGQERWLRDYCASGLYILVLLLEGYKFSEETWPNIQFQKQAGDTDIGWTLGFMLNLTGMIPAEAPTHWRAQSYSIWTAGVVFAVLTLVAILGAAAIQIFWTQD				activity in absence of divalent cations (mouse NTPDase8 [1]; 1 mM EDTA and 1 mM EGTA, any of the substrates tested): no activity could be detected; pH of optimal activity (mouse NTPDase8 [1]; ADPase activity, evaluated from pH 4.0 to 11.0): ~6.4; pH range in which highly active (mouse NTPDase8 [1]; ATPase and ADPase activity, evaluated from pH 4.0 to 11.0): 5.5–7.0; ratio of hydrolysis ATP/ADP (mouse NTPDase8 [1]; in the presence of Ca2+): 1.6±0.3; ratio of hydrolysis UTP/UDP (mouse NTPDase8 [1]; in the presence of Ca2+): 2.1±0.3; inhibition of platelet aggregation [3]: 53%
mNTPDase1: mouse NTPDase1 protein extract from transfected COS cells (protein, UniProt P55772 1-510, looked up, COS cell extract, mouse NTPDase1 protein extract from transfected COS cells) Ectonucleoside triphosphate …: MEDIKDSKVKRFCSKNILIILGFTSILAVIALIAVGLTQNKPLPENVKYGIVLDAGSSHTNLYIYKWPAEKENDTGVVQQLEECQVKGPGISKYAQKTDEIGAYLAECMELSTELIPTSKHHQTPVYLGATAGMRLLRMESEQSADEVLAAVSTSLKSYPFDFQGAKIITGQEEGAYGWITINYLLGRFTQEQSWLSLISDSQKQETFGALDLGGASTQITFVPQNSTIESPENSLQFRLYGEDYTVYTHSFLCYGKDQALWQKLAKDIQVSSGGVLKDPCFNPGYEKVVNVSELYGTPCTKRFEKKLPFDQFRIQGTGDYEQCHQSILELFNNSHCPYSQCAFNGVFLPPLHGSFGAFSAFYFVMDFFKKVAKNSVISQEKMTEITKNFCSKSWEETKTSYPSVKEKYLSEYCFSGAYILSLLQGYNFTDSSWEQIHFMGKIKDSNAGWTLGYMLNLTNMIPAEQPLSPPLPHSTYIGLMVLFSLLLVAVAITGLFIYSKPSYFWKEAV				inhibition of platelet aggregation [3]: 100%
